Experimental data from US20040248887A1, “Inhibitors of cathepsin S” (IRM LLC, priority 2003, published 2004).

Target: Cathepsin S (Homo sapiens, UniProt P25774)
Experiment: Cathepsin S inhibition, fluorogenic peptide substrate kinetic assay
Assay type: biochemical
Details: Table II; Cathepsin S inhibition constant, pH5.5; read-out: Ki Cat. S
In short: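 Ki values derive from apparent constants fitted to progress curves, corrected for competition with substrate via [S] and Km. Kinetics were monitored at 380 nm excitation/450 nm emission, after substrate addition (Ac-HPVK-ACC, 50 μM final) to start the reaction.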

Cathepsin S, sequence (P25774 115-331, species assumed): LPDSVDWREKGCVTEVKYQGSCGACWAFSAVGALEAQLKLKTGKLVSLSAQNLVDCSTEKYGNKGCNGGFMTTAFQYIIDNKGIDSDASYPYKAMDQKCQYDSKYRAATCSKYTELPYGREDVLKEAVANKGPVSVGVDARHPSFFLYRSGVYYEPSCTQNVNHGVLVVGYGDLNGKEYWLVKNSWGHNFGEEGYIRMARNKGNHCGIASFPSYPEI

Row | Compound | Ki
1 | Cn1cnc(S(=O)(=O)N[C@@H](CC2CCCCC2)C(=O)NCCN2CCc3cc(F)ccc32)c1 [Compound 255, (S)-3-Cyclohexyl-N-[2-(5-fluoro-2,3-dihydro-indol-1-yl)-ethyl]-2-(1-methyl-1H-imidazole-4-sulfonylamino)-propionamide] | < 1000 nM
2 | C[C@@H](CN1CCc2cc(F)ccc21)NC(=O)[C@H](CC(C)(C)C)NC(=O)Cc1nnn[nH]1 [Compound 179, 4,4-Dimethyl-2-(S)-(2-1H-tetrazol-5-yl-acetylamino)-pentanoic acid [2-(5-fluoro-2,3-dihydro-indol-1-yl)-1-(S)-methyl-ethyl]-amide] | < 1000 nM
3 | C[C@@H](CNc1ccc(OC(F)(F)F)cc1)NC(=O)[C@H](CC1CCCCC1)NC(=O)c1ccc(-c2cccnc2)o1 [Compound 143, 5-Pyridin-3-yl-furan-2-carboxylic acid {2-cyclohexyl-1-(S)-[1-(S)-methyl-2-(4-trifluoromethoxy-phenylamino)-ethylcarbamoyl]-ethyl}-amide] | < 100 nM
4 | Cc1cc(NC[C@H](C)NC(=O)[C@H](CC2CCCCC2)NC(=O)c2ccc(-c3cccc(F)c3)o2)sn1 [Compound 267, 5-(3-Fluoro-phenyl)-furan-2-carboxylic acid {2-cyclohexyl-1-(S)-[1-(S)-methyl-2-(3-methyl-isothiazol-5-ylamino)-ethylcarbamoyl]-ethyl}-amide] | < 1000 nM
5 | O=C(N[C@@H](CC1CCCCC1)C(=O)NCCN1CCc2cc(F)ccc21)C1CC1 [Compound 14, Cyclopropanecarboxylic acid (S)-{2-cyclohexyl-1-[2-(5-fluoro-2,3-dihydro-indol-1-yl)-ethylcarbamoyl]-ethyl}-amide] | < 100 nM
6 | COc1ccc(N2CCC[C@@H](NC(=O)[C@H](CC(C)C)NC(=O)c3cccc(C)c3)C2)cc1 (single isomer, unassigned) [Compound 32] | < 10000 nM
7 | C[C@@H](CNc1ccc(OC(F)(F)F)cc1)NC(=O)[C@H](CC1CCCCC1)NC(=O)c1ccc(-c2cccc(F)c2)o1 [Compound 83, 5-(3-Fluoro-phenyl)-furan-2-carboxylic acid {2-cyclohexyl-1-(S)-[1-(S)-methyl-2-(4-trifluoromethoxy-phenylamino)-ethylcarbamoyl]-ethyl}-amide] | < 100 nM
8 | O=C(NCCN1CCc2cc(F)ccc21)[C@H](CC1CCCCC1)NS(=O)(=O)c1ccc(OC(F)F)cc1 [Compound 240, (S)-3-Cyclohexyl-2-(4-difluoromethoxy-benzenesulfonylamino)-N-[2-(5-fluoro-2,3-dihydro-indol-1-yl)-ethyl]-propionamide] | < 1000 nM
9 | C[C@@H](CNc1ccc(OC(F)(F)F)cc1)NC(=O)[C@H](CC1CCCCC1)NS(=O)(=O)c1cccnc1 [Compound 183, (S,S)-3-Cyclohexyl-N-[1-methyl-2-(4-trifluoromethoxy-phenylamino)-ethyl]-2-(pyridine-3-sulfonylamino)-propionamide] | < 100 nM
10 | C[C@@H](CN1CC(C)(C)c2cc(F)ccc21)NC(=O)[C@H](CC1CCCCC1)NC(=O)[C@H]1CCCO1 [Compound 273, Tetrahydrofuran-2-(R)-carboxylic acid {2-cyclohexyl-1-(S)-[2-(5-fluoro-3,3-dimethyl-2,3-dihydro-indol-1-yl)-1-(S)-methyl-ethylcarbamoyl]-ethyl}-amide] | < 100 nM
11 | COc1ccc(NC[C@H](C)NC(=O)[C@H](CCC2CCCCC2)NC(=O)c2ccc(-c3cccc(C(F)(F)F)c3)o2)cc1 [Compound 27, 5-(3-Trifluoromethyl-phenyl)-furan-2-carboxylic acid {3-cyclohexyl-(1S)-[2-(4-methoxy-phenylamino)-(1S)-methyl-ethylcarbamoyl]-propyl}-amide] | < 100 nM
12 | C[C@@H](CNc1ccc(OC(F)(F)F)cc1)NC(=O)[C@H](CC1CCCCC1)NC(=O)c1ccc(-c2ccc(F)cc2)o1 [Compound 103, 5-(4-Fluoro-phenyl)-furan-2-carboxylic acid {2-cyclohexyl-1-(S)-[1-(S)-methyl-2-(4-trifluoromethoxy-phenylamino)-ethylcarbamoyl]-ethyl}-amide] | < 100 nM
13 | C[C@@H](CNc1ccc(S(C)(=O)=O)cc1)NC(=O)[C@H](CC1CCCCC1)NC(=O)c1ccc(-c2ccc(F)cc2)o1 [Compound 107, 5-(4-Fluoro-phenyl)-furan-2-carboxylic acid {2-cyclohexyl-1-(S)-[2-(4-methanesulfonyl-phenylamino)-1-(S)-methyl-ethylcarbamoyl]-ethyl}-amide] | < 100 nM
14 | CC(C)(C)C[C@H](NC(=O)OC(C)(C)C)C(=O)N[C@@H](CCS(C)(=O)=O)CN1CCc2cc(F)ccc21 [Compound 157, {1-(S)-[1-(S)-(5-Fluoro-2,3-dihydro-indol-1-ylmethyl)-3-methanesulfonyl-propylcarbamoyl]-3,3-dimethyl-butyl}-carbamic acid tert-butyl ester] | < 100 nM
15 | C[C@@H](CNc1cccc(C(N)=O)c1)NC(=O)[C@H](CC1CCCCC1)NC(=O)c1ccc(-c2cccc(F)c2)o1 [Compound 98, 5-(3-Fluoro-phenyl)-furan-2-carboxylic acid {1-(S)-[2-(3-carbamoyl-phenylamino)-1-(S)-methyl-ethylcarbamoyl]-2-cyclohexyl-ethyl}-amide] | < 100 nM
16 | C[C@@H](CNc1ccc(S(C)(=O)=O)cc1)NC(=O)[C@H](CC(C)(C)C)NC(=O)c1ccc(-c2cccc(F)c2)o1 [Compound 129, 5-(3-Fluoro-phenyl)-furan-2-carboxylic acid {1-(S)-[2-(4-methanesulfonyl-phenylamino)-1-(S)-methyl-ethylcarbamoyl]-3,3-dimethyl-butyl}-amide] | < 100 nM
17 | C[C@@H](CNc1ccc2c(c1)C(=O)OC2)NC(=O)[C@H](CC1CCCCC1)NC(=O)c1ccc(-c2cccc(F)c2)o1 [Compound 137, 5-(3-Fluoro-phenyl)-furan-2-carboxylic acid {2-cyclohexyl-1-(S)-[1-(S)-methyl-2-(3-oxo-1,3-dihydro-isobenzofuran-5-ylamino)-ethylcarbamoyl]-ethyl}-amide] | < 100 nM
18 | CC(C)(C)C[C@H](NC(=O)OC(C)(C)C)C(=O)N[C@@H](CC#N)CN1CCc2cc(F)ccc21 [Compound 164, {1-(S)-[2-Cyano-1-(S)-(5-fluoro-2,3-dihydro-indol-1-ylmethyl)-ethylcarbamoyl]-3,3-dimethyl-butyl}-carbamic acid tert-butyl ester] | < 1000 nM
19 | (S)-{2-Cyclohexyl-1-[2-(5-fluoro-2,3-dihydro-indol-1-yl)-ethylcarbamoyl]-ethyl}-carbamic acid benzyl ester [Compound 220] | < 1000 nM

Continued, values first:

Row | Ki | Compound
20 | < 1000 nM | Cc1cccc(C(=O)N[C@@H](Cc2ccccc2Cl)C(=O)NCCN2CCc3cc(F)ccc32)c1 [Compound 195, N-((S)-1-(2-(5-fluoroindolin-1-yl)ethylcarbamoyl)-2-(2-chlorophenyl)ethyl)-3-methylbenzamide]
21 | < 1000 nM | COc1cccc(C(=O)N[C@@H](CCC2CCCCC2)C(=O)N[C@@H](CCCCNC(=O)OCc2ccccc2)CN2CCc3cc(F)ccc32)c1 [Compound 55, (S,S)-[5-[4-Cyclohexyl-2-(3-methoxy-benzoylamino)-butyrylamino]-6-(5-fluoro-2,3-dihydro-indol-1-yl)-hexyl]-carbamic acid benzyl ester]
22 | < 100 nM | O=C(N[C@@H](CC1CCCCC1)C(=O)NCCN1CCc2cc(F)ccc21)c1ccc(-c2ccccc2)s1 [Compound 82, 5-Phenyl-thiophene-2-carboxylic acid (S)-{2-cyclohexyl-1-[2-(5-fluoro-2,3-dihydro-indol-1-yl)-ethylcarbamoyl]-ethyl}-amide]
23 | < 100 nM | O=C(NC(C(=O)N[C@@H](COCc1ccccc1)CN1CCc2cc(F)ccc21)c1ccc(Cl)cc1Cl)c1ccco1 (mixture of isomers) [Compound 207, N-(R,S)-((3-(benzyloxy)-1-(5-fluoroindolin-1-yl)propan-2-(R)-ylcarbamoyl)(2,4-dichlorophenyl)methyl)furan-2-carboxamide]
24 | < 1000 nM | O=C(N[C@@H](CC1CC1)C(=O)NCCN1CCc2cc(F)ccc21)c1ccc(-c2cccc(C(F)(F)F)c2)o1 [Compound 194, N-((S)-1-(2-(5-fluoroindolin-1-yl)ethylcarbamoyl)-2-cyclopropylethyl)-5-(3-(trifluoromethyl)phenyl)furan-2-carboxamide]
25 | < 1000 nM | Cc1cccc(C(=O)N[C@@H](Cc2ccccc2)C(=O)NCCN2CCc3cc(F)ccc32)c1 [Compound 205, N-((S)-1-(2-(5-fluoroindolin-1-yl)ethylcarbamoyl)-2-phenylethyl)-3-methylbenzamide]
26 | < 1000 nM | O=C(N[C@@H](CC1CCCCC1)C(=O)NCCN1CCc2cc(F)ccc21)C1CCN(S(=O)(=O)c2ccccc2)CC1 [Compound 58, 1-Benzenesulfonyl-piperidine-4-carboxylic acid (S)-{2-cyclohexyl-1-[2-(5-fluoro-2,3-dihydro-indol-1-yl)-ethylcarbamoyl]-ethyl}-amide]
27 | < 1000 nM | Cc1cccc(C(=O)NC(C(=O)NCCN2CCc3cc(F)ccc32)c2ccc(Cl)cc2Cl)c1 (racemic) [Compound 213, (R,S)-N-((2-(5-fluoroindolin-1-yl)ethylcarbamoyl)(2,4-dichlorophenyl)methyl)-3-methylbenzamide]
28 | < 1000 nM | O=C(NCCN1CCc2cc(F)ccc21)[C@H](CC1CCCCC1)NS(=O)(=O)c1cc(Cl)c(Cl)s1 [Compound 258, (S)-3-Cyclohexyl-2-(4,5-dichloro-thiophene-2-sulfonylamino)-N-[2-(5-fluoro-2,3-dihydro-indol-1-yl)-ethyl]-propionamide]
29 | < 100 nM | O=C(N[C@@H](CC1CCCCC1)C(=O)NCCN1CCc2cc(F)ccc21)c1csc(-c2ccccc2)n1 [Compound 76, 2-Phenyl-thiazole-4-carboxylic acid (S)-{2-cyclohexyl-1-[2-(5-fluoro-2,3-dihydro-indol-1-yl)-ethylcarbamoyl]-ethyl}-amide]
30 | < 10000 nM | COc1cccc(C(=O)N[C@@H](CCC2CCCCC2)C(=O)NCCN2CCc3cc(OC)ccc32)c1 [Compound 16, (S)-N-{3-Cyclohexyl-1-[2-(5-methoxy-2,3-dihydro-indol-1-yl)-ethylcarbamoyl]-propyl}-3-methoxy-benzamide]
